± gives the standard deviation of the averaged measurements.
What was measured:
Assay in all cases: level (log10 ratio to DMSO vehicle control); higher = higher biomarker level / cell amount than vehicle control
Conditions in all cases: in DMSO
[1] = compound: FC(F)(F)C(F)(F)C(F)(F)C(F)(F)C(F)(F)C(F)(F)C(F)(F)I [1-Iodopentadecafluoroheptane]
Protocol: (§1)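 BioMAP Diversity Plus panel of 12 human primary cell co-culture systems (3C, 4H, LPS, SAg, BT, BF4T, BE3C, CASM3C, HDF3CGF, KF3CT, MyoF, Mphg). Compounds were added 1 h before stimulation and left for 24 h (MyoF 48 h; BT 72 h for soluble read-outs or 6 d for IgG). Biomarkers were read by ELISA, cytotoxicity by SRB, PBMC viability and proliferation by Alamar Blue. Each well value was divided by the mean of 8 DMSO control wells on the same plate and log10 transformed; duplicate blinded samples were tested at 4 concentrations.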

Octafluoroadipamide = compound: NC(=O)C(F)(F)C(F)(F)C(F)(F)C(F)(F)C(N)=O [Octafluoroadipamide]
Protocol: as §1

[2] = compound: NC(=O)C(F)(F)C(F)(F)C(F)(F)C(F)F
Protocol: as §1

[3] = compound: NS(=O)(=O)C(F)(F)C(F)(F)C(F)(F)C(F)(F)C(F)(F)C(F)(F)F [Perfluorohexanesulfonamide]
Protocol: as §1

[4] = compound: O=C(O)C(F)(F)C(F)(F)C(F)(F)C(F)(F)C(F)(F)C(F)(F)C(F)(F)C(F)(F)C(F)(F)C(F)F [11-H-Perfluoroundecanoic acid]
Protocol: as §1

[5] = compound: O=S(=O)(F)C(F)(F)C(F)(F)C(F)(F)C(F)(F)C(F)(F)C(F)(F)C(F)(F)C(F)(F)F [Perfluorooctanesulfonyl fluoride]
Protocol: as §1

Test System: BF4T:CCL26/Eotaxin-3
- level (log10) ([1]; 6700 nM): -0.04 ± 0.048
- level (log10) ([1]; 20000 nM): -0.0305 ± 0.042
- level (log10) (Octafluoroadipamide; 6700 nM): -0.0045 ± 0.046
- level (log10) (Octafluoroadipamide; 20000 nM): 0.0065 ± 0.052
- level (log10) (Octafluoroadipamide; 60000 nM): 0.0075 ± 0.029
- level (log10) ([2]; 6700 nM): -0.001 ± 0.0085
- level (log10) ([2]; 20000 nM): -0.012 ± 0.033
- level (log10) ([2]; 60000 nM): 0.0005 ± 0.018
- level (log10) ([3]; 6700 nM): -0.017 ± 0.018
- level (log10) ([3]; 20000 nM): -0.064 ± 0.0028
- level (log10) ([3]; 60000 nM): -0.151 ± 0.012
- level (log10) ([4]; 6700 nM): -0.122 ± 0.014
- level (log10) ([4]; 20000 nM): -0.234 ± 0.018
- level (log10) ([5]; 6700 nM): -0.0265 ± 0.021
- level (log10) ([5]; 20000 nM): 0.0035 ± 0.016
- level (log10) ([5]; 60000 nM): -0.014 ± 0.016

Test System: BE3C:CXCL8/IL-8
- level (log10) ([1]; 6700 nM): -0.0175 ± 0.0078
- level (log10) ([1]; 20000 nM): -0.007 ± 0.0057
- level (log10) (Octafluoroadipamide; 6700 nM): -0.0565 ± 0.013
- level (log10) (Octafluoroadipamide; 20000 nM): -0.0485 ± 0.026
- level (log10) (Octafluoroadipamide; 60000 nM): -0.034 ± 0.083
- level (log10) ([2]; 6700 nM): 0.025 ± 0.035
- level (log10) ([2]; 20000 nM): 0.0405 ± 0.0078
- level (log10) ([2]; 60000 nM): 0.0565 ± 0.04
- level (log10) ([3]; 6700 nM): -0.0795 ± 0.044
- level (log10) ([3]; 20000 nM): -0.161 ± 0.0078
- level (log10) ([3]; 60000 nM): -0.3 ± 0.039
- level (log10) ([4]; 6700 nM): -0.0885 ± 0.016
- level (log10) ([4]; 20000 nM): 0.0475 ± 0.05
- level (log10) ([5]; 6700 nM): 0.0175 ± 0.0021
- level (log10) ([5]; 20000 nM): 0.0295 ± 0.011
- level (log10) ([5]; 60000 nM): 0.0615 ± 0.029

Test System: BE3C:CD54/ICAM-1
- level (log10) ([1]; 6700 nM): -0.0125 ± 0.026
- level (log10) ([1]; 20000 nM): 0.006 ± 0.013
- level (log10) (Octafluoroadipamide; 6700 nM): -0.0135 ± 0.025
- level (log10) (Octafluoroadipamide; 20000 nM): -0.0185 ± 0.016
- level (log10) (Octafluoroadipamide; 60000 nM): 0.016 ± 0.034
- level (log10) ([2]; 6700 nM): -0.006 ± 0.0042
- level (log10) ([2]; 20000 nM): -0.002 ± 0.0042
- level (log10) ([2]; 60000 nM): 0.0155 ± 0.016
- level (log10) ([3]; 6700 nM): -0.0105 ± 0.025
- level (log10) ([3]; 20000 nM): 0.003 ± 0.0028
- level (log10) ([3]; 60000 nM): 0.017 ± 0.013
- level (log10) ([4]; 6700 nM): -0.0105 ± 0.0021
- level (log10) ([4]; 20000 nM): -0.35 ± 0.031
- level (log10) ([5]; 6700 nM): -0.0035 ± 0.019
- level (log10) ([5]; 20000 nM): -0.0055 ± 0.0092
- level (log10) ([5]; 60000 nM): 0.0045 ± 0.026

Test System: LPS:CCL2/MCP-1
- level (log10) ([1]; 6700 nM): 0.0035 ± 0.00071
- level (log10) ([1]; 20000 nM): 0.0225 ± 0.0021
- level (log10) (Octafluoroadipamide; 6700 nM): 0.003 ± 0.0042
- level (log10) (Octafluoroadipamide; 20000 nM): 0.0005 ± 0.0035
- level (log10) (Octafluoroadipamide; 60000 nM): 0.018 ± 0.021
- level (log10) ([2]; 6700 nM): 0.009 ± 0.045
- level (log10) ([2]; 20000 nM): 0.005 ± 0.042
- level (log10) ([2]; 60000 nM): 0.03 ± 0.013
- level (log10) ([3]; 6700 nM): -0.011 ± 0.0028
- level (log10) ([3]; 20000 nM): -0.024 ± 0.018
- level (log10) ([3]; 60000 nM): -0.102 ± 0.034
- level (log10) ([4]; 6700 nM): -0.009 ± 0.0085
- level (log10) ([4]; 20000 nM): -0.022 ± 0.0099
- level (log10) ([5]; 6700 nM): 0.0005 ± 0.015
- level (log10) ([5]; 20000 nM): -0.012 ± 0.016
- level (log10) ([5]; 60000 nM): 0.0145 ± 0.028

Test System: BE3C:HLA-DR
- level (log10) ([1]; 6700 nM): 0.0035 ± 0.0021
- level (log10) ([1]; 20000 nM): 0.0015 ± 0.0078
- level (log10) (Octafluoroadipamide; 6700 nM): -0.003 ± 0.0014
- level (log10) (Octafluoroadipamide; 20000 nM): -0.0015 ± 0.00071
- level (log10) (Octafluoroadipamide; 60000 nM): 0.0175 ± 0.037
- level (log10) ([2]; 6700 nM): 0.0065 ± 0.016
- level (log10) ([2]; 20000 nM): 0.008 ± 0.0057
- level (log10) ([2]; 60000 nM): -0.0025 ± 0.023
- level (log10) ([3]; 6700 nM): -0.01 ± 0.0042
- level (log10) ([3]; 20000 nM): -0.032 ± 0.018
- level (log10) ([3]; 60000 nM): -0.0685 ± 0.018
- level (log10) ([4]; 6700 nM): -0.0645 ± 0.005
- level (log10) ([4]; 20000 nM): -0.669 ± 0.0085
- level (log10) ([5]; 6700 nM): -0.0105 ± 0.012
- level (log10) ([5]; 20000 nM): -0.0125 ± 0.011
- level (log10) ([5]; 60000 nM): -0.01 ± 0.011

Test System: LPS:sTNF-alpha
- level (log10) ([1]; 6700 nM): 0.0115 ± 0.018
- level (log10) ([1]; 20000 nM): 0.0025 ± 0.0092
- level (log10) (Octafluoroadipamide; 6700 nM): 0.047 ± 0.018
- level (log10) (Octafluoroadipamide; 20000 nM): 0.0355 ± 0.018
- level (log10) (Octafluoroadipamide; 60000 nM): 0.037 ± 0.0042
- level (log10) ([2]; 6700 nM): -0.0095 ± 0.0035
- level (log10) ([2]; 20000 nM): -0.0095 ± 0.022
- level (log10) ([2]; 60000 nM): -0.003 ± 0.031
- level (log10) ([3]; 6700 nM): -0.0515 ± 0.022
- level (log10) ([3]; 20000 nM): -0.02 ± 0.041
- level (log10) ([3]; 60000 nM): -0.0325 ± 0.079
- level (log10) ([4]; 6700 nM): 0.0065 ± 0.0092
- level (log10) ([4]; 20000 nM): 0.0135 ± 0.0035
- level (log10) ([5]; 6700 nM): -0.009 ± 0.0057
- level (log10) ([5]; 20000 nM): 0 ± 0.0014
- level (log10) ([5]; 60000 nM): -0.0015 ± 0.013

Test System: BT:sTNF-alpha
- level (log10) ([1]; 6700 nM): -0.051 ± 0.018
- level (log10) ([1]; 20000 nM): 0.093 ± 0.17
- level (log10) (Octafluoroadipamide; 6700 nM): 0.058 ± 0.23
- level (log10) (Octafluoroadipamide; 20000 nM): 0.116 ± 0.098
- level (log10) (Octafluoroadipamide; 60000 nM): 0.194 ± 0.077
- level (log10) ([2]; 6700 nM): 0.0475 ± 0.19
- level (log10) ([2]; 20000 nM): -0.0695 ± 0.0035
- level (log10) ([2]; 60000 nM): -0.0215 ± 0.047
- level (log10) ([3]; 6700 nM): -0.013 ± 0.12
- level (log10) ([3]; 20000 nM): -0.027 ± 0.065
- level (log10) ([3]; 60000 nM): 0.068 ± 0.09
- level (log10) ([4]; 6700 nM): 0.016 ± 0.059
- level (log10) ([4]; 20000 nM): -0.051 ± 0.024
- level (log10) ([5]; 6700 nM): 0.0075 ± 0.044
- level (log10) ([5]; 20000 nM): -0.0215 ± 0.0092
- level (log10) ([5]; 60000 nM): -0.041 ± 0.15

Reference: the supplement of paper PMC10331698
